Experimental data from paper PMC8511391, “Optimization of Pichia pastoris Expression System for High-Level Production of Margatoxin” (Frontiers in Pharmacology, 2021).
pKd: −log10 of the molar value. Bridge positions count the residues as written; N and C are the ends. Ends that are not written are not given here. Peptide text beside a SMILES is read from it.

Experiments:
hKv1.3 [1] = biological target: T1, hKv1.3 (Homo sapiens, UniProt P22001); assay type: cell-based; conditions: for inhibition of whole-cell current at block equilibrium: 200 pM toxin, hKv1.3
T1 construct: endogenous in cells
Description: The human venous blood from anonymized healthy donors was obtained from a blood bank. The peripheral blood mononuclear cells were isolated through Histopaque1077 (Sigma-Aldrich Hungary, Budapest, Hungary) density gradient centrifugation. Cells obtained were resuspended in RPMI 1640 medium containing 10% fetal calf serum (Sigma-Aldrich), 100 µg/ml penicillin, 100 µg/ml streptomycin, and 2 mM L glutamine, seeded in a 24-well culture plate at a density of 5 x 10^5 cells per ml, and grown in a 5% CO2 incubator at 37°C for 2–5 days. Phytohemagglutinin A (Sigma-Aldrich) was added in 5, 7, and 10 µg/ml concentrations to the medium to boost the potassium ion channel expression.
(§8) Electrophysiological measurements were performed by using the patch-clamp technique in whole-cell or outside-out patch configuration and voltage clamp mode using the Multiclamp 700B amplifier and Axon Digidata1440 digitizer (Molecular Devices, Sunnyvale, CA). Micropipettes were pulled from GC150F-15 borosilicate capillaries (Harvard Apparatus Kent, United Kingdom), resulting in 3–5 MΩ resistance in the bath solution. The extracellular solution contained 145 mM NaCl, 5 mM KCl, 1 mM MgCl2, 2.5 mM CaCl2, 5.5 mM glucose, and 10 mM HEPES, with a pH of 7.35 and an osmolarity between 302 and 308 mOsM/L. When the toxins were dissolved at different molar concentrations in bath solution, it was supplemented with 0.1 mg/ml of BSA. The pipette filling (intracellular) solution consisted of 140 mM KF, 2 mM MgCl2, 1 mM CaCl2, 10 mM HEPES, and 11 mM EGTA, with a pH of 7.22 and an osmolarity of 295 mOsM/L.
To record the hKv1.3 and hKv1.2 currents, 15- to 200-ms-long depolarization impulses were applied at +50 mV from a holding potential of −120 mV every 15 s. The pClamp 10.1 software package was used to acquire and analyze the measured data. Current traces were low-pass filtered by the analog four-pole Bessel filters of the amplifiers, and the sampling frequency was set at 20 kHz, at least twice that of the filter cutoff frequency. The effect of the toxin at a given molar concentration was calculated as the remaining current fraction (RCF = I/I0, where I0 is the peak current in the absence of the toxin and I is the peak current at equilibrium block at a given toxin concentration). The data points on dose–response curves represent the mean of 3–4 individual measurements. […]
Pharmacological activity of both versions of rMgTx was evaluated by studying their effect on the hKv1.2 and hKv1.3 ion channels. The hKv1.2 current was recorded in CHO cells, which heterologously expressed the hKv1.2 ion channel, and hKv1.3 current was recorded in the human peripheral blood lymphocytes. […]

hKv1.2 [2] = biological target: T2, hKv1.2 (Homo sapiens, UniProt P16389); assay: Patch-clamp block of hKv1.2 current (dose-response / equilibrium block) in transfected CHO cells; assay type: cell-based; conditions: for block of whole-cell current at equilibrium: 100 pM toxin, hKv1.2, CHO cells
T2 construct: GFP (from vector pCMV6-GFP); host or cells: CHO cells, transient transfection with Lipofectamine 2000
Description: as §8
Pharmacological activity of both versions of rMgTx was evaluated by studying their effect on the hKv1.2 and hKv1.3 ion channels. […] A custom-built perfusion system was used to apply toxins at a very small perfusion rate of 200 µl/min. […]

hKv1.3 [3] = biological target: T1, hKv1.3; assay: Binding and unbinding kinetics (wash-in/washout, patch-clamp) on hKv1.3; conditions: for koff: Kv1.3, calculated from averaged τ off; for koff / k on: 3-5 independent experiments; for k on: Kv1.3, calculated from averaged τ on and τ off, 200 pM toxin; for τ on: hKv1.3, 200 pM toxin, wash-in, single exponential; for τ on / τ off: n = 4, ± SEM; for τ off: hKv1.3, washout after 200 pM toxin
Description: (§1) Electrophysiological measurements were performed by using the patch-clamp technique in whole-cell or outside-out patch configuration and voltage clamp mode using the Multiclamp 700B amplifier and Axon Digidata1440 digitizer (Molecular Devices, Sunnyvale, CA). Micropipettes were pulled from GC150F-15 borosilicate capillaries (Harvard Apparatus Kent, United Kingdom), resulting in 3–5 MΩ resistance in the bath solution. The extracellular solution contained 145 mM NaCl, 5 mM KCl, 1 mM MgCl2, 2.5 mM CaCl2, 5.5 mM glucose, and 10 mM HEPES, with a pH of 7.35 and an osmolarity between 302 and 308 mOsM/L. When the toxins were dissolved at different molar concentrations in bath solution, it was supplemented with 0.1 mg/ml of BSA. The pipette filling (intracellular) solution consisted of 140 mM KF, 2 mM MgCl2, 1 mM CaCl2, 10 mM HEPES, and 11 mM EGTA, with a pH of 7.22 and an osmolarity of 295 mOsM/L.
(§2) To record the hKv1.3 and hKv1.2 currents, 15- to 200-ms-long depolarization impulses were applied at +50 mV from a holding potential of −120 mV every 15 s. The pClamp 10.1 software package was used to acquire and analyze the measured data. Current traces were low-pass filtered by the analog four-pole Bessel filters of the amplifiers, and the sampling frequency was set at 20 kHz, at least twice that of the filter cutoff frequency. The effect of the toxin at a given molar concentration was calculated as the remaining current fraction (RCF = I/I0, where I0 is the peak current in the absence of the toxin and I is the peak current at equilibrium block at a given toxin concentration). The data points on dose–response curves represent the mean of 3–4 individual measurements. The data points were fitted with a three-parameter [inhibition] vs response model, RCF = Bottom + [Top–Bottom)/(1+([toxin]/K d )], where Top and Bottom values were constrained to 1 and 0, respectively, and [toxin] is the concentration of the toxin. The best fit curve gave K d of the given toxin.
(§3) To examine the effect of additional residues of TrMgTx on binding to the ion channel, the association and dissociation rate constants of both the versions of the toxin were determined for the Kv1.3 channel of the activated human T lymphocytes and the hKv1.2 channel transiently expressed in the CHO cell. Whole-cell currents were recorded after applying the toxin (200 pM for Kv1.3 and 100 pM for Kv1.2) to the extracellular solution until the equilibrium block was achieved (wash-in), and then removed it by perfusing the toxin-free control solution (washout). Peak currents at a time point t [I(t)] were normalized to the peak current in the absence of the toxin [Inorm(t) = I(t)/I0], and these were plotted as a function of time. The association time constant (τ on ) was determined by fitting the data points during the wash-in procedure in the one-phase decay equation: Inorm(t)=((1−RCF)×e^−t/τon)+RCF , with the RCF = I/I0 at the equilibrium block as defined in the Electrophysiology section. The dissociation time constant (τ off ) was determined by fitting the following equation to the data points during the washout procedure: Inorm(t)=RCF+(1−e^−t/τoff).
(§4) The association rate constant (k on ) and dissociation rate constant (k off ) were calculated from the measured time constants, assuming a simple bimolecular interaction between the channel and toxin, and by using the following equations ([Peter et al., 2001]), with τon and τoff defined above, and [toxin] as the toxin concentration: kon=1−(τon×koff)/τon×[toxin], koff=1/τoff.

hKv1.2 [4] = biological target: T2, hKv1.2; assay: Binding and unbinding kinetics (wash-in/washout, patch-clamp) on hKv1.2; conditions: for k on: Kv1.2, calculated from averaged τ on and τ off, 100 pM toxin; for τ on: hKv1.2, 100 pM toxin, wash-in; for τ on / τ off: ± SEM; for recovery from block on washout: hKv1.2, toxin-free solution after 100 pM; for τ off: hKv1.2, washout after 100 pM toxin
Description: CHO cells were transiently transfected with the vector pCMV6-GFP (OriGene Technologies, Germany) encoding the human Kv1.2 ion channel using Lipofectamine 2000 (Invitrogen, Carlsbad, CA), following the manufacturer's protocol, and grown under the standard conditions as used previously ([Bagdány et al., 2005]). GFP-positive transfectants were identified with Nikon TE 2000U fluorescence microscope (Nikon, Tokyo, Japan), and currents were recorded after 24 h post transfection.
as §1, §2, §3, §4

[5] = test system: IL2R (CD25) expression in CD4^+ TEM cells; assay: IL2R (CD25) expression in anti-CD3-stimulated CD4+ TEM lymphocytes (flow cytometry); assay type: cell-based, human; conditions: for inhibition of IL2R expression: 24 h anti-CD3 stimulation, three donors, technical duplicates, MFI normalized to stimulated; for effect on upregulation of IL2R expression: ∼100× K d (TrMgTx 8.5 nM, UrMgTx 5 nM), 24 h, anti-CD3
Excerpt: (§5) The mononuclear cells were isolated from anonymized healthy donors as described earlier. Prior to CD4^+ TEM cells separation, dead cells were removed using the Dead Cell Removal Microbead Kit (Miltenyi Biotec B.V & CO. KG, Bergisch Gladbach, Germany). Untouched CD4^+ TEM lymphocytes were purified through magnetic cell sorting (negative selection) with the CD4^+ Effector Memory T Cell Isolation Kit (Miltenyi Biotec B.V. & Co. KG, Bergisch Gladbach, Germany) according to the manufacturer's protocol.
(§6) For TCR-specific stimulation, anti-human CD3 monoclonal antibodies (clone OKT3, BioLegend, San Diego, CA) were bound to the surface of 24-well cell culture plates at a density of 5 µg/well in phosphate-buffered saline (PBS) overnight at 4°C. Before seeding the cells, the wells were washed twice with PBS to remove the unbound antibodies. The CD4^+ TEM cells were divided into four groups: 1) unstimulated, 2) stimulated, 3) stimulated + TrMgTx (8.5 nM), and 4) stimulated + UrMgTx (5 nM). The cells were seeded at a density of 0.5×10^6 cells/ml per well, and when indicated, the cells were preincubated with the toxins for 5 min prior to the stimulation. The plate was incubated at 37°C in 5% CO2 for 24 h. Each experiment was performed in technical duplicates on three different donors.
(§7) For quantifying the extent of TEM cell stimulation, cells were washed with PBS buffer containing 1% of fetal bovine serum (FBS) and stained with fluorescein isothiocyanate (FITC)–labeled anti-human CD154 (CD40L) antibody (clones 24–31, BioLegend, San Diego, CA) and PerCP/Cyanine5.5–labeled anti-human CD25 (IL2R) antibody (clone BC96, BioLegend) at 4°C for 20 min. Cells were washed with the PBS + 1% FBS buffer and resuspended in 150 µl in PBS + 1% FBS. Samples were measured with NovoCyte 3000 RYB flow cytometer (ACEA Bioscience Inc.), FITC and PerCP/Cyanine5.5 were excited by using blue laser (488 nm), and 530/30 nm and 695/40 nm emission filters were used, respectively. Flow cytometry data were analyzed using FCS Express 6.0 (De Novo Software, Glendale, CA). Briefly, cells were gated on the basis of their FSC and SSC parameters, and then, the histograms corresponding to CD40L and CD25 were plotted as peak-normalized overlays. Mean fluorescent intensities (MFIs) were computed from the histograms and normalized to that of their stimulated (S) but not treated control. The negative (unlabeled) and unstimulated control (US) were always used for comparison.

[6] = test system: CD40L expression in CD4^+ TEM cells; assay: CD40L (CD154) expression in anti-CD3-stimulated CD4+ TEM lymphocytes (flow cytometry); assay type: cell-based, human; conditions: for CD40L expression of stimulated, treated cells vs unstimulated cells: TrMgTx 8.5 nM or UrMgTx 5 nM; for CD40L expression of stimulated, treated cells vs unstimulated cells / effect on upregulation of CD40L expression: 24 h; for inhibition of CD40L expression: 24 h anti-CD3 stimulation, three donors, technical duplicates, MFI normalized to stimulated; for effect on upregulation of CD40L expression: ∼100× K d (TrMgTx 8.5 nM, UrMgTx 5 nM), anti-CD3
Excerpt: as §5, §6, §7

Kv1.3 = conditions: cited from earlier work
Description: Voltage-gated potassium (Kv) channels are present in a variety of cells and tissues where they regulate multiple physiological processes, including cardiac function, neural excitability, muscle contraction, cell proliferation, cell volume control, and hormonal secretion ([Coetzee et al., 1999]; [Giangiacomo et al., 2004]). […] Previous studies report the production of recombinant MgTx (rMgTx) in E. coli and P. ... || Pharmacological activity of both versions of rMgTx was evaluated by studying their effect on the hKv1.2 and hKv1.3 ion channels. The hKv1.2 current was recorded in CHO cells, which heterologously expressed the hKv1.2 ion channel, and hKv1.3 current was recorded in the human peripheral blood lymphocytes. The stimulation of the hKv1.3 channel expression (activation of isolated mononuclear cells by PHA, see the Materials and Methods section) and recording conditions (no Ca^2+ in the pipette to elicit Ca^2+-activated K^+ channels) guaranteed that the current recorded in these cells is K^+ current ... || (+ 2 further places)

T1 sequence (P22001 whole entry): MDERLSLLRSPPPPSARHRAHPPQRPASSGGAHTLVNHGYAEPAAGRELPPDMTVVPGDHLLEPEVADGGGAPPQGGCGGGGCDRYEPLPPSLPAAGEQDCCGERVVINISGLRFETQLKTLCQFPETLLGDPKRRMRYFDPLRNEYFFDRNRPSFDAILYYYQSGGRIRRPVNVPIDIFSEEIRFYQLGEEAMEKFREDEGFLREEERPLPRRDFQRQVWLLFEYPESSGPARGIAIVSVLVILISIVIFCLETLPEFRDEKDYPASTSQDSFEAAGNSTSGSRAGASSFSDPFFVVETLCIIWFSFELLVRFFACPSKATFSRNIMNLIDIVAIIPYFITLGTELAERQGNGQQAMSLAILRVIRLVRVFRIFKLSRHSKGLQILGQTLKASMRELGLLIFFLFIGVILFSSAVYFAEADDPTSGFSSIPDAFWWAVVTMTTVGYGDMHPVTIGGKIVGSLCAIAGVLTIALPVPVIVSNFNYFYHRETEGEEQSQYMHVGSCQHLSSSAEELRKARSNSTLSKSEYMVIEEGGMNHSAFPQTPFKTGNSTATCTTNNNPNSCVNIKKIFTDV
T2 sequence (P16389 whole entry): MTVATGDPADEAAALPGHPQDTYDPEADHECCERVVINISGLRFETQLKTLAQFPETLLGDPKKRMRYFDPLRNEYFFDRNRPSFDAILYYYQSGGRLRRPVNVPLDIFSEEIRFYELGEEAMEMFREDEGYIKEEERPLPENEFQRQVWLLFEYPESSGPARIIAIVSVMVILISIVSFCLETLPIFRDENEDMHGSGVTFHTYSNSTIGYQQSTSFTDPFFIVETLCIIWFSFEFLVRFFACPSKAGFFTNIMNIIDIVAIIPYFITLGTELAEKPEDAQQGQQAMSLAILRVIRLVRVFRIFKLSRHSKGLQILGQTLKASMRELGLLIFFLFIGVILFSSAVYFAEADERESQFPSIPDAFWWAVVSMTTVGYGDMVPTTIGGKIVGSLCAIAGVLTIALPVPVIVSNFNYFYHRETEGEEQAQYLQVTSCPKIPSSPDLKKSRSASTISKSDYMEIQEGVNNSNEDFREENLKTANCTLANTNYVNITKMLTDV

| Molecule | inhibition of whole-cell current at block equilibrium (hKv1.3 [1]) [%] | block of whole-cell current at equilibrium (hKv1.2 [2]) | koff (hKv1.3 [3]) [s⁻¹] | k on (hKv1.3 [3]) [M⁻¹ s⁻¹] | τ on (hKv1.3 [3]) [s] | τ off (hKv1.3 [3]) [s] | k on (hKv1.2 [4]; 3-5 independent experiments) [M⁻¹ s⁻¹] | τ on (hKv1.2 [4]) [s] | recovery from block on washout (hKv1.2 [4]) | τ off (hKv1.2 [4]) [s] | effect on upregulation of IL2R expression [5] | CD40L expression of stimulated, treated cells vs unstimulated cells [6] | effect on upregulation of CD40L expression [6] | other results |
| --- | --- | --- | --- | --- | --- | --- | --- | --- | --- | --- | --- | --- | --- | --- |
| CC[C@H](C)[C@H](NC(=O)[C@@H](N)[C@@H](C)O)C(=O)N[C@H](C(=O)N[C@@H](CC(N)=O)C(=O)N[C@H](C(=O)N[C@@H](CCCCN)C(=O)N[C@H]1CSSC[C@@H]2NC(=O)[C@H](CCCCN)NC(=O)[C@H](C)NC(=O)CNC(=O)[C@H](C)NC(=O)[C@H](CO)NC(=O)[C@H](CCC(N)=O)NC(=O)CNC(=O)[C@H](Cc3ccccc3)NC(=O)[C@H](CCC(N)=O)NC(=O)[C@H](C)NC(=O)[C@H](CCCCN)NC(=O)[C@@H]3CSSC[C@@H](C(=O)N[C@@H](Cc4ccc(O)cc4)C(=O)N4CCC[C@H]4C(=O)N[C@@H](Cc4c[nH]cn4)C(=O)O)NC(=O)[C@H](CCCCN)NC(=O)[C@H](CSSC[C@H](NC(=O)[C@H](CCC(N)=O)NC(=O)[C@H](CCCCN)NC(=O)[C@@H]4CCCN4C(=O)[C@H](CO)NC(=O)[C@H]([C@@H](C)O)NC1=O)C(=O)N[C@@H](CC(C)C)C(=O)N1CCC[C@H]1C(=O)N1CCC[C@H]1C(=O)N3)NC(=O)[C@H](CCCCN)NC(=O)CNC(=O)[C@H](CC(N)=O)NC(=O)[C@H](CCSC)NC2=O)C(C)C)[C@@H](C)CC [UrMgTx] (H-TIINVKCTSPKQCLPPCKAQFGQSAGAKCMNGKCKCYPH-OH; disulfide 7-29, 13-34, 17-36; N-terminus and C-terminus assumed) | ~80 | ~90% | 0.00179 | 3.43e+07 | 116 ± 10 | 560 ± 28 | 4.62e+07 | 191 ± 12 | slow and partial recovery | 1308 ± 351 | significantly reduced | comparable to that of unstimulated cells | significantly reduced | k on compared with TrMgTx (hKv1.3 [3]; hKv1.3, unpaired t test, n = 4, p < 0.001): significantly higher; k off compared with TrMgTx (hKv1.2 [4]; hKv1.2, unpaired t test, n = 3-4, p < 0.001): substantially lower; k on compared with TrMgTx (hKv1.2 [4]; hKv1.2, unpaired t test, n = 3-4, p < 0.01): slightly higher; inhibition of IL2R expression ([5]; UrMgTx 5 nM): ~45%; inhibition of CD40L expression ([6]; UrMgTx 5 nM): ~45% |
| charybdotoxin [reference compound] | – | – | – | – | – | – | – | – | – | – | – | – | – | reduction in peak current, positive control (hKv1.2 [2]; 14 nM charybdotoxin, hKv1.2, data not shown): Around 50% |
| EFHHHHHHLQIEGRTIINVKCTSPKQCLPPCKAQFGQSAGAKCMNGKCKCYPH (disulfide 21-43, 27-48, 31-50) [TrMgTx] | ~70 | about 60% | 0.00179 | 2.14e+07 | 168 ± 19 | 568 ± 84 | 3.05e+07 | 202 ± 2.3 | slow but full recovery | 532 ± 69 | significantly reduced | comparable to that of unstimulated cells | significantly reduced | potency relative to UrMgTx (hKv1.3 [1]; hKv1.3, dose-response): slightly less potent; potency relative to UrMgTx (hKv1.2 [2]; hKv1.2, dose-response): nearly fivefold less potent; association rate, fold lower than UrMgTx (hKv1.3 [3]; hKv1.3): ~1.6 fold; koff (hKv1.2 [4]; Kv1.2, calculated from averaged τ off, 3-5 independent experiments): 0.0019 s⁻¹; association rate, fold lower than UrMgTx (hKv1.2 [4]; hKv1.2): ~1.6 fold; inhibition of IL2R expression ([5]; TrMgTx 8.5 nM): ~39%; inhibition of CD40L expression ([6]; TrMgTx 8.5 nM): ~36% |
| CC[N+](CC)(CC)CC [tetraethylammonium, reference compound] | – | – | – | – | – | – | – | – | – | – | – | – | – | reduction in peak current, positive control (hKv1.3 [1]): Around 50%; pKd (Kv1.3): 2.00 |
